Test [1] has as its system VIOTR. The experiment in a line: Post-emergence herbicidal action against VIOTR. In kind it is in vivo, Viola tricolor. As to conditions: Viola tricolor, 504 h. The method, boiled down:
(§1)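 Percent herbicidal action is rated by eye about 3 weeks after treatment against untreated controls, where 100% means dead plants and 0% means like controls. Plants in sandy loam are sprayed on green parts at the one-leaf stage with aqueous WP or EC preparations at 600 to 800 l/ha plus 0.2% wetting agent.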

Test [2] has as its system VIOTR. The experiment in a line: Pre-emergence herbicidal action against VIOTR. The class given is in vivo, Viola tricolor. As to conditions: Viola tricolor, 504 h; for pest or weed control at 80 g/ha: dosage 80 g/ha. The method, boiled down:
(§2)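 Seeds sown in sandy loam, soil-covered; compound sprayed on soil surface pre-emergence. Application: WP/EC, 600–800 l/ha, 0.2% wetting agent. Readout: visual % damage at 3 weeks.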

Test [3] deals with ECHCG. The experiment in a line: Post-emergence herbicidal action against ECHCG. In kind it is in vivo, Echinochloa crus-galli. As to conditions: Echinochloa crus-galli, 504 h; for pest or weed control at 20 g/ha: dosage 20 g/ha. The procedure, abridged: as §1
Test [4] concerns VERPE. The experiment in a line: Post-emergence herbicidal action against VERPE. The class given is in vivo, Veronica persica. As to conditions: Veronica persica, 504 h. The method, boiled down:
as §1

For test [5], the system named is ABUTH. The experiment in a line: Pre-emergence herbicidal action against ABUTH. The class given is in vivo, Abutilon theophrasti. As to conditions: Abutilon theophrasti, 504 h; for pest or weed control at 80 g/ha: scored visually after 3 weeks vs untreated controls (100% = plants have died, 0% = like control plants); for pest or weed control at 20 g/ha: dosage 20 g/ha, scored visually after 3 weeks vs untreated controls, 100% = plants have died, 0% = like control plants, read-out: Pre-emergence action against ABUTH (herbicidal activity in percent). The method, boiled down: as §2

Test [6] has as its system MATIN. The experiment in a line: Pre-emergence herbicidal action against MATIN. The class given is in vivo, Matricaria inodora. As to conditions: Tripleurospermum inodorum, 504 h; for pest or weed control at 20 g/ha: dosage 20 g/ha; for pest or weed control at 80 g/ha: dosage 80 g/ha. The procedure, abridged: as §2
Test [7] deals with SETVI. The experiment in a line: Post-emergence herbicidal action against SETVI. As to conditions: Setaria viridis, 504 h, dosage 20 g/ha. The class given is in vivo, Setaria viridis. The method, boiled down:
as §1

Test [8] relates to MATIN. The experiment in a line: Post-emergence herbicidal action against MATIN. In kind it is in vivo, Matricaria inodora. As to conditions: Tripleurospermum inodorum, 504 h, dosage 20 g/ha. The procedure, abridged:
as §1

The next test has as its system POLCO. The experiment in a line: Post-emergence herbicidal action against POLCO. The class given is in vivo, Polygonum convolvulus. As to conditions: Fallopia convolvulus, 504 h; for pest or weed control at 20 g/ha: dosage 20 g/ha. The method, then:
Seeds of monocotyledonous and dicotyledonous weed and crop plants are laid out in sandy loam soil in wood-fiber pots, covered with soil and cultivated in a greenhouse under good growth conditions. 2 to 3 weeks after sowing, the test plants are treated at the one-leaf stage. The compounds of the invention, formulated in the form of wettable powders (WP) or as emulsion concentrates (EC), are then sprayed onto the green parts of the plants in the form of an aqueous suspension or emulsion at a water application rate equivalent to 600 to 800 l/ha, with addition of 0.2% wetting agent. After the test plants have been left to stand in the greenhouse under optimal growth conditions for about 3 weeks, the action of the preparations is assessed visually in comparison to untreated controls (herbicidal action in percent (%): 100% activity=the plants have died, 0% activity=like control plants). […] The tables below illustrate, in an illustrative manner, the post-emergence herbicidal action of the compounds of the invention, the herbicidal activity being stated in percent.

The test system of another test is AMARE. The experiment in a line: Pre-emergence herbicidal action against AMARE. In kind it is in vivo, Amaranthus retroflexus. As to conditions: Amaranthus retroflexus, 504 h, scored visually after 3 weeks vs untreated controls, 100% = plants have died, 0% = like control plants. The procedure, abridged:
as §2

Test [9] has as its system ECHCG. The experiment in a line: Pre-emergence herbicidal action against ECHCG. In kind it is in vivo, Echinochloa crus-galli. As to conditions: Echinochloa crus-galli, 504 h, 80 g/ha. The procedure, abridged: as §2
Test [10] concerns SETVI. The experiment in a line: Pre-emergence herbicidal action against SETVI. In kind it is in vivo, Setaria viridis. As to conditions: Setaria viridis, 504 h, dosage 80 g/ha. The procedure, abridged: as §2
The test system of the next test is PHBPU. The experiment in a line: Post-emergence herbicidal action against PHBPU. The class given is in vivo, Pharbitis purpurea. As to conditions: Ipomoea purpurea, 504 h, dosage 20 g/ha. The procedure, abridged:
as §1

For test [11], the system named is ABUTH. The experiment in a line: Post-emergence herbicidal action against ABUTH. In kind it is in vivo, Abutilon theophrasti. As to conditions: Abutilon theophrasti, 504 h, visual assessment about 3 weeks after treatment vs untreated controls; for pest or weed control at 5 g/ha: dosage 5 g/ha; for pest or weed control at 20 g/ha: dosage 20 g/ha. The procedure, abridged:
as §1

In the next test the test system is DIGSA. The experiment in a line: Pre-emergence herbicidal action against DIGSA. As to conditions: Digitaria sanguinalis, 504 h; for pest or weed control at 20 g/ha: dosage 20 g/ha; for pest or weed control at 80 g/ha: dosage 80 g/ha. The class given is in vivo, Digitaria sanguinalis. The method, boiled down: as §2
The subject of another test is ALOMY. The experiment in a line: Pre-emergence herbicidal action against ALOMY. The class given is in vivo, Alopecurus myosuroides. As to conditions: Alopecurus myosuroides, 504 h; 80 g/ha, pre-emergence, scored visually after 3 weeks vs untreated controls (100% = plants have died, 0% = like control plants). The method, boiled down:
as §2

Test [12] concerns VERPE. The experiment in a line: Pre-emergence herbicidal action against VERPE. As to conditions: Veronica persica, 504 h. The class given is in vivo, Veronica persica. The procedure, abridged:
as §2

Consider `CNC(=O)c1c(C(F)F)ccc(C(=O)Nc2nnnn2C)c1OC` [Example 1-72], for which the pest or weed control at 20 g/ha with VIOTR [1] came to 90%; in the test on ECHCG [3] it was 80%; in the test with VERPE [4], 90%; in the test on ABUTH [5], 100%; with MATIN [6], 80%; in the test with SETVI [7], 80%. In addition, the pest or weed control at 20 g/ha was found to be 80% with MATIN [8]; 100% in the test with POLCO; 100% with AMARE; 80% with PHBPU; 90% in the test with ABUTH [11]; 90% in the test on DIGSA. In addition, the pest or weed control at 80 g/ha with VIOTR [2] came to 100%; in the test with ABUTH [5] it was 100%; in the test on MATIN [6], 100%; in the test on AMARE, 100%; in the test with ECHCG [9] it was 80%; in the test with SETVI [10], 100%. Further, the pest or weed control at 80 g/ha with DIGSA worked out at 100%. For the same molecule, the pest or weed control at 5 g/ha is 80% in the test with VERPE [4], 100% in the test with POLCO (dosage 5 g/ha) and 80% in the test on ABUTH [11].

For the molecule `CCNC(=O)c1c(C(F)F)ccc(C(=O)Nc2nnnn2C)c1OC` [Example 1-73], the pest or weed control at 80 g/ha in the test with ALOMY turned out to be 80%; in the test on VIOTR [2], 100%; in the test on VERPE [12] (dosage 80 g/ha), 100%; in the test on ABUTH [5] it was 100%; in the test on MATIN [6] it was 100%; in the test with AMARE, 100%. For the same molecule, the pest or weed control at 80 g/ha with ECHCG [9], in the test on SETVI [10] and with DIGSA was 100% throughout. Further, the pest or weed control at 5 g/ha in the test on VIOTR [1] (5 g/ha), in the test on ECHCG [3] (dosage 5 g/ha), in the test on VERPE [4] and in the test with ABUTH [11] was 80% throughout. In addition, the pest or weed control at 20 g/ha in the test on VIOTR [1] was determined as 80%; with VIOTR [2] (dosage 20 g/ha), 100%; with ECHCG [3], 80%; in the test with VERPE [4] it was 80%; with VERPE [12] (dosage 20 g/ha), 80%; in the test with ABUTH [5], 100%. For the same molecule, the pest or weed control at 20 g/ha in the test with MATIN [6] worked out at 90%; in the test on MATIN [8] it was 80%; in the test on POLCO it was 80%; in the test with AMARE, 100%; in the test on ABUTH [11], 80%; with DIGSA, 90%.

For the origin of these results see patent publication US12655116B2, “Substituted isophthalic acid diamides” (Bayer Aktiengesellschaft, priority 2020, dated 2026).
